Measurements: the NIST ThermoML archive (doi:10.1016/j.jct.2014.06.012)
“And” between values parts separate entries of the source, which are not always exact repeats. Equal entries are not always repeated.

Experiment: molar heat capacity at constant pressure
Conditions: 101.33 kPa, Crystal 1

O=P([O-])([O-])[O-].[Cs+].[Mn+2] [cesium manganese(II) phosphate]
molar heat capacity at constant pressure
Conditions	Small sample (50 mg) DSC	Vacuum adiabatic calorimetry
240.73 K	–	124.88 J/K/mol
243.23 K	–	125.55 J/K/mol
245.29 K	–	126.13 J/K/mol
247.36 K	–	126.8 J/K/mol
250 K	–	126.96 J/K/mol
250.13 K	–	127.46 J/K/mol
252.55 K	–	128.04 J/K/mol
255.37 K	–	128.79 J/K/mol
258.11 K	–	129.46 J/K/mol
260 K	–	129.62 J/K/mol
260.99 K	–	130.29 J/K/mol
263.88 K	–	131.12 J/K/mol
266.76 K	–	131.87 J/K/mol
269.64 K	–	132.62 J/K/mol
270 K	–	132.37 J/K/mol
272.52 K	–	133.45 J/K/mol
275.39 K	–	134.28 J/K/mol
278.26 K	–	135.19 J/K/mol
280 K	–	135.11 J/K/mol
281.34 K	–	136.02 J/K/mol
283.99 K	–	136.77 J/K/mol
286.86 K	–	137.69 J/K/mol
289.06 K	–	138.1 J/K/mol
290 K	–	138.02 J/K/mol
291.64 K	–	139.02 J/K/mol
295.04 K	–	140.18 J/K/mol
297.8 K	–	141.01 J/K/mol
298.15 K	–	140.43 J/K/mol
300 K	–	141.01 J/K/mol
300.2 K	–	141.76 J/K/mol
302.7 K	–	142.51 J/K/mol
305.33 K	–	143.34 J/K/mol
308.4 K	–	144.17 J/K/mol
310 K	–	144.17 J/K/mol
310.94 K	–	144.92 J/K/mol
314 K	–	145.92 J/K/mol
317.6 K	–	147 J/K/mol
320 K	–	147.58 J/K/mol
320.46 K	–	147.91 J/K/mol
323.3 K	–	148.91 J/K/mol
326.66 K	–	150.08 J/K/mol
329.3 K	–	150.91 J/K/mol
330 K	–	151.16 J/K/mol
330.7 K	151.32 J/K/mol	–
331.64 K	–	151.57 J/K/mol
332.7 K	152.15 J/K/mol	–
333.9 K	152.15 J/K/mol	–
335.3 K	–	152.49 J/K/mol
337 K	152.99 J/K/mol	–
338.7 K	–	153.4 J/K/mol
340 K	153.82 J/K/mol	154.9 J/K/mol
341.6 K	153.82 J/K/mol	–
343.13 K	–	154.65 J/K/mol
345 K	155.48 J/K/mol	–
347.5 K	155.48 J/K/mol	–
350 K	156.31 J/K/mol	–
352.5 K	157.14 J/K/mol	–
355 K	157.14 J/K/mol	–
357.7 K	157.97 J/K/mol	–
360 K	158.81 J/K/mol	–
360.2 K	157.97 J/K/mol	–
362.5 K	158.81 J/K/mol	–
364.9 K	158.81 J/K/mol	–
367.5 K	159.64 J/K/mol	–
370 K	160.47 J/K/mol	–
372.5 K	160.47 J/K/mol	–
374.8 K	161.3 J/K/mol	–
377.3 K	161.3 J/K/mol	–
380 K	162.13 J/K/mol	–
382.2 K	162.13 J/K/mol	–
385 K	162.96 J/K/mol	–
387.5 K	162.96 J/K/mol	–
390 K	163.8 J/K/mol	–
392.5 K	163.8 J/K/mol	–
395 K	164.63 J/K/mol	–
397.5 K	164.63 J/K/mol	–
400 K	164.63 J/K/mol	–
400.3 K	165.46 J/K/mol	–
402.8 K	165.46 J/K/mol	–
405.3 K	166.29 J/K/mol	–
407.5 K	166.29 J/K/mol	–
409.5 K	166.29 J/K/mol	–
410 K	166.29 J/K/mol	–
412.6 K	166.29 J/K/mol	–
415 K	167.12 J/K/mol	–
417.5 K	167.12 J/K/mol	–
420 K	167.12 J/K/mol	–
422.5 K	167.12 J/K/mol	–
425 K	167.95 J/K/mol	–
427.5 K	167.95 J/K/mol	–
430 K	167.95 J/K/mol	–
432.5 K	167.95 J/K/mol	–
435 K	168.78 J/K/mol	–
437.5 K	168.78 J/K/mol	–
440 K	169.62 J/K/mol and 168.78 J/K/mol	–
442.5 K	169.62 J/K/mol	–
445 K	169.62 J/K/mol	–
447.5 K	169.62 J/K/mol	–
450 K	170.45 J/K/mol	–
452.5 K	170.45 J/K/mol	–
455 K	170.45 J/K/mol	–
457.5 K	170.45 J/K/mol	–
460 K	171.28 J/K/mol	–
462.5 K	171.28 J/K/mol	–
465 K	171.28 J/K/mol	–
467.5 K	171.28 J/K/mol	–
469.9 K	172.11 J/K/mol	–
470 K	172.11 J/K/mol	–
472.5 K	172.11 J/K/mol	–
475 K	172.11 J/K/mol	–
477.5 K	172.11 J/K/mol	–
480 K	172.94 J/K/mol	–
482.5 K	172.94 J/K/mol	–
485 K	172.94 J/K/mol	–
487.5 K	172.94 J/K/mol	–
490 K	173.77 J/K/mol	–
492.5 K	173.77 J/K/mol	–
495 K	173.77 J/K/mol	–
497.5 K	174.6 J/K/mol	–
500 K	174.6 J/K/mol	–
502.5 K	174.6 J/K/mol	–
505.3 K	174.6 J/K/mol	–
507.5 K	175.44 J/K/mol	–
510 K	175.44 J/K/mol	–
512.5 K	175.44 J/K/mol	–
515 K	175.44 J/K/mol	–
517.5 K	176.27 J/K/mol	–
520 K	176.27 J/K/mol	–
522.5 K	176.27 J/K/mol	–
525 K	176.27 J/K/mol	–
527.5 K	177.1 J/K/mol	–
530 K	177.1 J/K/mol	–
532.5 K	177.1 J/K/mol	–
535 K	177.1 J/K/mol	–
537.5 K	177.93 J/K/mol	–
540 K	177.93 J/K/mol	–
542.5 K	177.93 J/K/mol	–
545 K	177.93 J/K/mol	–
547.5 K	178.76 J/K/mol	–
550 K	178.76 J/K/mol	–
552.5 K	178.76 J/K/mol	–
555 K	178.76 J/K/mol	–
557.5 K	179.59 J/K/mol	–
560 K	179.59 J/K/mol	–
562.5 K	179.59 J/K/mol	–
565 K	179.59 J/K/mol	–
567.5 K	180.42 J/K/mol	–
570 K	180.42 J/K/mol	–
572.5 K	180.42 J/K/mol	–
575 K	180.42 J/K/mol	–
577.5 K	181.26 J/K/mol	–
580 K	181.26 J/K/mol	–
582.5 K	181.26 J/K/mol	–
585 K	181.26 J/K/mol	–
587.5 K	182.09 J/K/mol	–
590 K	182.09 J/K/mol	–
592.5 K	182.09 J/K/mol	–
595 K	182.09 J/K/mol	–
597.5 K	182.92 J/K/mol	–
600 K	182.92 J/K/mol	–
602.5 K	182.92 J/K/mol	–
605 K	183.75 J/K/mol	–
607.5 K	183.75 J/K/mol	–
610 K	183.75 J/K/mol	–
612.5 K	183.75 J/K/mol	–
615 K	184.58 J/K/mol	–
617.5 K	184.58 J/K/mol	–
620 K	184.58 J/K/mol	–
622.4 K	184.58 J/K/mol	–
625 K	185.41 J/K/mol	–
627.5 K	185.41 J/K/mol	–
630 K	185.41 J/K/mol	–
632.5 K	186.24 J/K/mol	–
635 K	186.24 J/K/mol	–
637.5 K	186.24 J/K/mol	–
640 K	186.24 J/K/mol	–
642.5 K	186.24 J/K/mol	–
645.1 K	187.08 J/K/mol	–
647.5 K	187.08 J/K/mol	–
650 K	187.08 J/K/mol	–
